Measurements as given in patent US8912121B2, “Herbicidal compositions comprising 4-amino-3-chloro-5-fluoro-6-(4-chloro-2-fluoro-3-methoxyphenyl)pyridine-2-carboxylic acid or a derivative thereof and certain PS II inhibitors” (Dow Agrosciences LLC, priority 2012, dated 2014).

Key:
[1] = test system: LEFCH (Leptochloa chinensis, Chinese sprangletop); test: Postemergence foliar-applied mixtures, direct seeded rice, greenhouse; type: in vivo, Leptochloa chinensis (L.) Nees; conditions: 22 DAA
From the text: Seeds or nutlets of the desired test plant species were planted in a soil matrix prepared by mixing a loam or sandy loam soil (e.g., 28.6 percent silt, 18.8 percent clay, and 52.6 percent sand, with a pH of about 5.8 and an organic matter content of about 1.8 percent) and calcareous grit in an 80 to 20 ratio. The soil matrix was contained in plastic pots with a volume of 1 quart and a surface area of 83.6 square centimeters (cm^2). When required to ensure good germination and healthy plants, a fungicide treatment and/or other chemical or physical treatment was applied. The plants were grown for 8-22 days in a greenhouse with an approximate 14 h photoperiod which was maintained at about 29° C. during the day and 26° C. during the night. Nutrients (Peters Excel® 15-5-15 5-Ca 2-Mg and iron chelate) were applied in the irrigation solution as needed and water was added on a regular basis. Supplemental lighting was provided with overhead metal halide 1000-Watt lamps as necessary. The plants were employed for testing when they reached the first through fourth true leaf stage. […]
(§1) Treatment requirements were calculated based upon the rates being tested, the concentration of active ingredient or acid equivalent in the formulation, and a 12 mL application volume at a rate of 187 L/ha.
For treatments comprised of formulated compounds, measured amounts of compounds were placed individually in 25 mL glass vials and diluted in a volume of 1.25% (v/v) Agri-Dex® crop oil concentrated to obtain 12× stock solutions. […]
For treatments comprised of formulated and technical compounds, weighed amounts of the technical materials were placed individually in 25 mL glass vials and dissolved in a volume of 97:3 v/v acetone/DMSO to obtain 12× stock solutions, and measured amounts of the formulated compounds were placed individually in 25 mL glass vials and diluted in a volume of 1.5% (v/v) crop oil concentrate or water to obtain 12× stock solutions. […]

[2] = test system: IPOHE (Ipomoea hederacea, ivyleaf morningglory); test: Pre-emergence soil-applied mixtures, greenhouse; type: in vivo, Ipomoea hederacea (L.) Jacq.
From the text: Seeds or nutlets of the desired test plant species were planted in a soil matrix prepared by mixing a loam soil (32 percent silt, 23 percent clay, and 45 percent sand, with a pH of about 6.5 and an organic matter content of about 1.9 percent) and calcareous grit in an 80 to 20 ratio. The soil matrix was contained in plastic pots with a volume of 1 quart and a surface area of 83.6 square centimeters (cm^2).
Treatments consisted of the benzyl ester of 4-amino-3-chloro-5-fluoro-6-(4-chloro-2-fluoro-3-methoxy-phenyl)pyridine-2-carboxylic acid (compound A) formulated as an SC (suspension concentrate) and various herbicidal components alone and in combination. Forms of compound A were applied on an acid equivalent basis.
Other herbicidal components were applied on an acid equivalent or active ingredient basis and included the PSII-inhibiting herbicides, atrazine formulated as Atrazine® 90WDG, metribuzin formulated as Metribuzin 75DF, simazine formulated as Princep Caliber 90, tebuthiuron formulated as Spike 80DF, cyanazine (technical grade material), hexazinone (technical grade material), linuron (technical grade material), terbuthylazine (technical grade material), and diuron formulated as Diuron 4L.
as §1
For treatments comprised of formulated compounds, measured amounts of compounds were placed individually in 25 mL glass vials and diluted in a volume of 1.25% (v/v) Agri-Dex® crop oil concentrate (COC) to obtain 12× stock solutions. […] Application solutions were prepared by adding an appropriate amount of each stock solution (e.g., 1 mL) and diluted to the appropriate final concentrations with the addition of 10 mL of an aqueous mixture of 1.25% (v/v) COC so that the final spray solutions contained 1.25% (v/v) COC.
For treatments comprised of technical compounds, weighed amounts can be placed individually in 25 mL glass vials and dissolved in a volume of 97:3 (v/v) acetone/DMSO to obtain 12× stock solutions. […]
For treatments comprised of formulated and technical compounds, weighed amounts of the technical materials can be placed individually in 25 mL glass vials and dissolved in a volume of 97:3 (v/v) acetone/DMSO to obtain 12× stock solutions, and measured amounts of the formulated compounds can be placed individually in 25 mL glass vials and diluted in a volume of 1.5% (v/v) COC or water to obtain 12× stock solutions. […]

SMILES: COc1c(Cl)ccc(-c2nc(C(=O)OCc3ccccc3)c(Cl)c(N)c2F)c1F [Compound A Benzyl Ester, benzyl ester of 4-amino-3-chloro-5-fluoro-6-(4-chloro-2-fluoro-3-methoxy-phenyl)pyridine-2-carboxylic acid]
- Visual Weed Control (%) Obs ([1]; 8 g ae/ha): 35%
- Visual Weed Control (%) Obs ([1]; 16 g ae/ha): 40%
- Visual Weed Control (%) - 33 DAA IPOHE Obs ([2]; Compound A Benzyl Ester 16 g ae/ha): 0%
- Visual Weed Control (%) - 33 DAA IPOHE Obs ([2]; Compound A Benzyl Ester 32 g ae/ha): 5%
